For orientation: melting point means the temperature of the solid-liquid transition. The molecule `CSc1sc(C(N)=O)c2c1-c1oc(C)nc1CC2` registered a melting point of more than 300 °C.
Molecule `CCOC(=O)c1cc2c(=O)c3cc(C(C)=O)ccc3oc2nc1N` showed a melting point of more than 300 °C.
For the molecule `N#CC(F)(F)C(F)(F)C(F)(F)C(F)(F)C#N`, the melting point turned out to be 132 °C.
Molecule `CN(C)c1ccc2c(c1)c(=O)[nH]c(=O)n2CCCCN1CCC(OC(c2ccccc2)c2ccccc2)CC1` returned a melting point of 165 to 167 °C.
Turning to `COC(=O)c1ccc(CN(O)Cc2ccc(C(=O)OC)cc2)cc1`, the melting point lay within 129 to 131 °C.
Then `CSC(=C[N+](=O)[O-])NCCN(C)Cc1ccc(Cl)nc1`, with 93 to 95 °C; and `CCC(c1ccc(Nc2ccccc2)c2ccccc12)c1ccc(Nc2ccccc2)c2ccccc12`, with 115 °C.
Take `O=C(O)CCCCCc1cccc2c(I)ncn12`: the melting point fell in the range of 163 to 165 °C.
For `N#Cc1ccccc1-c1ccc(CN2C(=O)c3ccccc3C2=O)cc1`, the melting point is 150 to 153 °C.
`CC(C)NC(=O)Nc1ccc2c(c1)C(c1ccccc1F)=NCC(=O)N2C` returned a melting point of 185 to 188 °C.
Turning to `OCCc1nccn1CCCc1cccc(O)c1`, the melting point was in the range of 111 to 113 °C.
`O=C1Cc2ccc(-c3ccccc3)cc2O1` returned a melting point of 109 to 110 °C.
On to `CCOC(=O)c1cc2cc(OCCCS(C)(=O)=O)cc(N)c2[nH]1`, for which the melting point lay in the range of 187 to 188 °C.
`COC(=O)CC/C(C)=C/Cc1c(C#N)c2c(c(C)c1OC)COC2=O` showed a melting point of 87 to 88 °C.
For `Cc1ccc(N2CCN(Cc3n[nH]c4ccccc34)CC2)cc1`, the melting point was 176 to 177 °C.
Then `CO[C@H]1CCCC[C@@]1(OC)c1cccc(OCc2ccc3ccccc3c2)c1` (racemic), with 93 to 94 °C.
`CCOC(=O)NN(C(=O)OCC)C1(c2ccc3c(c2)OCO3)C(=O)N(Cc2ccc(Cl)cc2)c2ccccc21` (configuration not stated) came in with a melting point of more than 220 °C.
For the molecule `CC(C)CCCC(C)C1CCC2C3CC=C4CC(OCCI)CCC4(C)C3CCC12C` (configuration not stated), the melting point is 86 to 88 °C.
For `O=C(Nc1ccc(Oc2ccnc(N3CCCC3)n2)c2ccccc12)c1cc(F)cc(N2CCOCC2)c1`, the melting point is 205 to 207 °C.
The figure for `NS(=O)(=O)c1ccc(NC(=O)Nc2ccc(Br)cc2)cc1` is 269 to 271 °C; for `C#CCOc1cc(C(=O)O)cc(Cl)c1OCC#C` it is 158 to 159 °C.
`Clc1ccc(C(c2ccc(Cl)cc2)N2CCN(C(c3ccccc3)c3c[nH]c4cccc(Cl)c34)CC2)cc1` (configuration not stated) displayed a melting point of 100 to 105 °C.
Then `N#Cc1ccc([C@H]2CC[C@H](C=C(F)F)CC2)cc1`, with 59.3 °C; and `O=c1ccsn1Cc1ccccc1`, with 78 to 80 °C.
As to `COC(=O)C=Cc1ccc(OCc2nc(-c3ccc4ccccc4c3)oc2C)cc1`, the melting point fell in the range of 185 to 186 °C.
For `CN(CCc1ccc2c(c1)oc(=O)n2C)Cc1ccccc1`, the melting point fell in the range of 72 to 73 °C.
Molecule `CN(C)Cc1nc(C(=O)O)nn1-c1ccc(Cl)cc1C(=O)c1ccccc1Cl` showed a melting point of 110 to 113 °C.
For `CC(=O)COc1cc(-n2c(=O)cc(C(F)(F)F)n(C)c2=O)c(F)cc1Cl`, the melting point was in the range of 164 to 166 °C.
As for `CN(C(=O)C(C)(C)c1cc(C(F)(F)F)cc(C(F)(F)F)c1)c1ccc(Cl)cc1C(=O)c1ccccc1`, the melting point is 89 to 91 °C.
As for `O=C(CC(c1ccccc1)c1ccccc1)Nc1ccccc1Cl`, the melting point was 181 °C.
The molecule `O=C(Nc1cccc(S(=O)(=O)NC2CC2)c1)c1cnn2c(C(F)(F)F)cc(-c3ccc(C(F)(F)F)cc3)nc12` gave a melting point of 232 °C.
For `COC1CCC(OC)C2=C1C=CC(=O)C2` (configuration not stated), the melting point lay within 99 to 100 °C.
In turn, `Cc1ccc2nc(C3(c4ccc(S(N)(=O)=O)cc4)C=C(C(F)F)NN3)sc2c1` (configuration not stated) registered a melting point of 235 to 236 °C.
`Cc1ccc(S(=O)(=O)OC2CON(C(=O)OC(C)(C)C)C2)cc1` (configuration not stated) yielded a melting point of 63 to 65 °C.
The figure for `O=C(Nc1nccs1)/C(=C/C1CCCC1)c1ccc(Cl)c(Cl)c1` is 57 to 59 °C.
In turn, `CC1NC(=Nc2ccccc2N2CCOCC2)N(CCO)C1C` (configuration not stated) had a melting point of 108 to 109 °C.
As to `C[C@H](Nc1ncnc2[nH]cnc12)c1oc2ccccc2c(=O)c1-c1ccccc1`, the melting point was in the range of 135 to 138 °C.
The figure for `Cc1ccc(OS(=O)(=O)c2ccc(N3CCN(C)C3=O)cc2)cc1` is 155 to 157 °C; for `CCOC(=O)c1cccc2c1Nc1ccc(C(=O)c3ccccc3)cc1N2C` it is 139 to 141 °C; for `CCOC(=O)C(C)Sc1ccc(-c2nc(=O)c3ccccc3s2)cn1` (configuration not stated) it is 116 °C.
Regarding `CCOC(=O)c1cn2ccc(NC(=O)c3cc4cc(C(F)(F)F)ccc4n3Cc3cccc(F)c3)cc2n1`, the melting point was 282 to 283 °C.
The figure for `c1ccc(Cc2ncc(-c3ccncc3)s2)cc1` is 46 to 47 °C.
The figure for `CC(C)(C)NC(=O)[C@@H]1CCCN1C(=O)[C@@H](O)[C@H](Cc1ccccc1)NC(=O)[C@H](CC(N)=O)NC(=O)COc1ccc(NC(=O)CNCCN2CCOCC2)cc1` is 123 to 132 °C; for `Cc1c(O)c(=O)[nH]c2cc(Cl)ccc2c1=O` it is 277 to 279 °C; for `O=C1N(CC2CCCO2)c2cccc(Cl)c2C12COc1cc3c(cc12)CCO3` (configuration not stated) it is 78 to 82 °C.
With `C#CCNc1ccc([N+](=O)[O-])cc1[N+](=O)[O-]`, the melting point was in the range of 151 to 152 °C.
`O=S1(=O)CCN2C=CC=C(c3ccc(OCC4CCOCC4)cc3)C2=N1` registered a melting point of 268 to 269 °C.
`Nc1cccnc1Cc1ccccc1` gave a melting point of 84 to 86 °C.
The figure for `COc1ccc(-c2cccc(F)c2)cc1` is 63 to 64 °C; for `CC(C)c1nc2c([nH]1)c(=O)[nH]c(=O)n2Cc1ccncc1` it is 305 to 307 °C.
Consider `Nc1cc2c(cc1Oc1ccccc1)C(=O)OC2`, for which the melting point lay within 205 to 206 °C.
Then `CC1(c2ccc(O)c(O)c2)C(=O)Nc2ccccc2C1=O` (configuration not stated), with 259 to 261 °C.
Then `COc1ccc(Nc2nc(C=O)cs2)cc1`, with 108 to 110 °C; and `CCc1nc2c(cnn2CC)c(NC2CCOCC2)c1CNC(=O)c1cccc(C(=O)NCc2ccc(OC)c(-c3cccc(CN4CCNC(C)C4)c3)c2)c1` (configuration not stated), with 110 to 112 °C; and `CC(=O)NCc1coc2cc(NS(C)(=O)=O)c(Oc3ccccc3)cc2c1=O`, with 240 to 242 °C.
As for `O=C(O)C1=Cc2c(cc(Cl)c(Cl)c2Cl)OC1C(F)(F)F` (configuration not stated), the melting point fell in the range of 236 to 239 °C.
Molecule `CCOC(=O)c1cn(CC)c2cc(N3CCN(C)CC3)ncc2c1=O` showed a melting point of 176 to 177 °C.
The figure for `C=CCON(CCCCCCCCCCCCCCCCCC)CCCCCCCCCCCCCCCCCC` is 60 to 62 °C.
As for `NS(=O)(=O)c1ccc2c(c1)C(O)CCC2` (configuration not stated), the melting point was in the range of 137 to 138 °C.
The figure for `Cc1nnc(-c2ccc3occ(-c4ccc(S(C)=O)c(Cl)c4)c3c2)o1` (configuration not stated) is 196 to 197 °C; for `CC(c1ccc(C(=O)O)cc1)N(C)c1ccc(Br)cc1OCc1ccccc1` (configuration not stated) it is 182 °C.
The figure for `CC(=O)N1CC(CCN2CC=C(c3c[nH]c4cc(Cl)ccc34)CC2)c2ccccc21` (configuration not stated) is 169 to 170 °C.
